The record followed here is patent US10072001B2, “Tank-binding kinase inhibitor compounds” (Gilead Sciences, Inc., priority 2014, dated 2018).

The target of one test is IKKε (Homo sapiens (Human), UniProt Q14164). The test can be described thus: TR-FRET kinase assay, IKKε. The class given is biochemical. The settings on record: full length recombinant IKKε 0.3 nM, 2x Km ATP, 1 μM peptide, 240 min at 25° C.; geometric mean of minimum four determinations. An excerpt: Biological Assay for TBK1 and IKKs:
Background: In TR-FRET formats the signal depends on donor and acceptor labels being close together.

Another test concerns the target TBK1 (Homo sapiens (Human), UniProt Q9UHD2). Nature of the test: TR-FRET kinase assay, TBK1. The settings on record: read-out: TBK1-IC50; full length recombinant TBK1 2.5 nM, 2x Km ATP, 1 μM peptide, 240 min at 25° C.; geometric mean of minimum four determinations.

IKKε, sequence (Q14164 whole entry): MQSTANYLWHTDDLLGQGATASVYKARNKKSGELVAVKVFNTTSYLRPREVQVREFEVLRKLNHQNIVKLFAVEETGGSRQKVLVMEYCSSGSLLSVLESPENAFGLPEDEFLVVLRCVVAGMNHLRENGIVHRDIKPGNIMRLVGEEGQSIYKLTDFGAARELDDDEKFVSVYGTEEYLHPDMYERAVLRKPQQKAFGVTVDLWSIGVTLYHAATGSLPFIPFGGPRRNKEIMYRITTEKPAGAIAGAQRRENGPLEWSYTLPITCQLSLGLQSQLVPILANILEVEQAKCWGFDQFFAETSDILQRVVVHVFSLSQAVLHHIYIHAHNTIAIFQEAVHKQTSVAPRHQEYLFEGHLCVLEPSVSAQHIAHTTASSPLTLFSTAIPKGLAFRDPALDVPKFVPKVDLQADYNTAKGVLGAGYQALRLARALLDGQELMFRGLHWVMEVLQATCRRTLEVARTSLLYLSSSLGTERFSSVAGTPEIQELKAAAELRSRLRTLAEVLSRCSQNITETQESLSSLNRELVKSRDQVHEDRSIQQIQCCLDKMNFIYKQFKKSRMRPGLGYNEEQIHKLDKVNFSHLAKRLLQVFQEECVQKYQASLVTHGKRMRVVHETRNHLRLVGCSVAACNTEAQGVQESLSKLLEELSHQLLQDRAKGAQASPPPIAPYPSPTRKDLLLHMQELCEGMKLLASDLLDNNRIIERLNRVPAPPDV
TBK1, sequence (Q9UHD2 whole entry): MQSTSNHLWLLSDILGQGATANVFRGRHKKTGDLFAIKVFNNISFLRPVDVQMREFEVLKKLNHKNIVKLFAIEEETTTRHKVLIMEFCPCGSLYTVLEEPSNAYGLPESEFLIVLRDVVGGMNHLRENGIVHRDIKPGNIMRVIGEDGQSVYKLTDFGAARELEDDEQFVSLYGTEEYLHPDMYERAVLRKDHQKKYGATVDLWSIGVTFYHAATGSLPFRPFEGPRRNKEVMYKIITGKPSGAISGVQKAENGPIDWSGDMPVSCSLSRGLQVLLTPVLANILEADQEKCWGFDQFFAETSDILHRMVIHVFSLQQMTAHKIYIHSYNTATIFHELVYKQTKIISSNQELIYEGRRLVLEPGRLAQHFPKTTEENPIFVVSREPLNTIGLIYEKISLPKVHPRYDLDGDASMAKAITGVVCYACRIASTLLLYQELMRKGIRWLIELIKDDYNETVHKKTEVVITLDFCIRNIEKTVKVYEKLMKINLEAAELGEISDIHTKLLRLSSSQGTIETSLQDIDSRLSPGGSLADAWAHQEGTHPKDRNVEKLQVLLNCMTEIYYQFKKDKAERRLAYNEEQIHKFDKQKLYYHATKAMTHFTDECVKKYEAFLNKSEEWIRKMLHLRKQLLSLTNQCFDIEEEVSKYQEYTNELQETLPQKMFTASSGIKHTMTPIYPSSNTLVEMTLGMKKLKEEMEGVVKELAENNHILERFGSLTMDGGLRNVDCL

The term IC50 denotes the concentration needed to halve the response being measured. As to `CN(C)Cc1ccc(-c2nc3c(-c4ccc(OC5CCN(C(=O)C(F)F)CC5)c(C#N)c4)ncnc3[nH]2)cc1` [Example 267, 2-((1-(2,2-difluoroacetyl)piperidin-4-yl)oxy)-5-(8-(4-((dimethylamino)methyl)phenyl)-9H-purin-6-yl)benzonitrile], the IC50 at IKKε and at TBK1 was 1000 nM throughout.
Turning to `CN(C)CC(=O)N1CC[C@@H](Oc2ccc(-c3ccnc4[nH]c(-c5ccc(N6CCOCC6)cc5)cc34)cc2C#N)C1` [Example 30, (R)-2-((1-(2-(dimethylamino)acetyl)pyrrolidin-3-yl)oxy)-5-(2-(4-morpholinophenyl)-1H-pyrrolo[2,3-b]pyridin-4-yl)benzonitrile], the IC50 is 135 nM on IKKε and 70.7 nM on TBK1.
The corresponding values for `CN(C)C(=O)/C=C/c1cc2c(-c3ccc(OC4CCOCC4)c(C#N)c3)ccnc2[nH]1` [Example 179, 3-(4-(3-cyano-4-((tetrahydro-2H-pyran-4-yl)oxy)phenyl)-1H-pyrrolo[2,3-b]pyridin-2-yl)-N,N-dimethylacrylamide] are 69.8 nM and 103 nM.
For `CS(=O)(=O)N1CCC(Oc2ccc(-c3ncnc4[nH]c(-c5ccc(N6CCOCC6)cc5)nc34)cc2C#N)CC1` [Example 253, 2-((1-(methylsulfonyl)piperidin-4-yl)oxy)-5-(8-(4-morpholinophenyl)-9H-purin-6-yl)benzonitrile], in that order: 39.8 nM and 19.8 nM.
The corresponding values for `COc1cc(-c2cc3c(-c4ccc(OC5CCOCC5)c(C#N)c4)ncnc3[nH]2)ccc1N1CCN(S(C)(=O)=O)CC1` [Example 135, 5-(6-(3-methoxy-4-(4-(methylsulfonyl)piperazin-1-yl)phenyl)-7H-pyrrolo[2,3-d]pyrimidin-4-yl)-2-((tetrahydro-2H-pyran-4-yl)oxy)benzonitrile] are 7.37 nM and 2.28 nM.
As for `N#Cc1cc(-c2ncnc3[nH]c(-c4cccc(N5CCOCC5)c4)cc23)ccc1CN1CCOCC1` [Example 113, 2-(morpholinomethyl)-5-(6-(3-morpholinophenyl)-7H-pyrrolo[2,3-d]pyrimidin-4-yl)benzonitrile], the half-inhibitory concentration (IC50) amounted to 1000 nM on IKKε and 69.1 nM on TBK1.
The corresponding values for `N#Cc1cc(-c2ccnc3[nH]c(-c4ccc(C5(O)COC5)cc4)cc23)ccc1OC1CCOCC1` [Example 8, 5-(2-(4-(3-hydroxyoxetan-3-yl)phenyl)-1H-pyrrolo[2,3-b]pyridin-4-yl)-2-((tetrahydro-2H-pyran-4-yl)oxy)benzonitrile] are 6.99 nM and 3.09 nM.
For `C[C@H](O)C(=O)N1CCC(Oc2ccc(-c3ncnc4[nH]c(-c5ccc(N6CCOCC6)cc5)nc34)cc2C#N)CC1` [Example 234, (S)-2-((1-(2-hydroxypropanoyl)piperidin-4-yl)oxy)-5-(8-(4-morpholinophenyl)-9H-purin-6-yl)benzonitrile], in that order: 8.64 nM and 2.34 nM.
